Data reported in patent US8629169B2, “4-substituted-3-phenylsulfanylmethyl-bicyclo[3.1.0]hexane compounds as mGluR 2/3 antagonists” (Eli Lilly and Company, priority 2010, dated 2014).

How the values were obtained:
human mGlu3 receptor = biological target: T1, human mGlu3 receptor (Homo sapiens, UniProt Q14832); assay: mGlu3 receptor cAMP antagonist assay; assay type: cell-based; settings: reversal of DCG IV (EC90) inhibition of forskolin-stimulated cAMP; relative IC50
T1 construct: expressed in transfected cells; host or cells: AV12 cells co-expressing rat EAAT1
Description: Antagonist activity is assayed in recombinant AV12 cells stably expressing human mGlu2 or mGlu3 receptors and the rat glutamate transporter EAAT1 (Excitatory Amino Acid Transporter 1). The cell lines are maintained by culturing in DMEM with high glucose and pyridoxine hydrochloride supplemented with 5% dialyzed fetal bovine serum (FBS), 1 mM sodium pyruvate, 1 mM HEPES and 1 mM L-glutamine; geneticin and hygromycin B are used as selection antibiotics.
Reversal of the inhibition of forskolin-stimulated cAMP production by test compounds is measured using homogeneous time resolved fluorescence technology (HTRF; Cisbio cat #62AM4PEB). The medium is removed and the cells are incubated with 100 μl cAMP stimulation buffer (STIM) for 30 minutes at 37° C. […] Cells are incubated at 37° C. for 20 minutes. To measure the cAMP levels, cAMP-d2 conjugate and anti cAMP-cryptate conjugate in lysis buffer are incubated with the treated cells at room temperature for 1 hour (mGlu2) or 1.5 hour (mGlu3). […] The raw data are converted to cAMP amount (pmole/well) using a cAMP standard curve generated for each experiment. Relative IC50 values are calculated from the top-bottom range of the concentration response curve using a four-parameter logistic curve fitting program (ActivityBase v5.3.1.22).

human mGlu1 receptor = biological target: T2, human mGlu1 receptor (Homo sapiens, UniProt Q13255); assay: FLIPR calcium antagonist assay for mGlu receptor selectivity, mGlu1; assay type: cell-based; settings: inhibition of EC90 glutamate response, read-out: mGlu1 % inhib. @12.5 μM
T2 construct: expressed in transfected cells; host or cells: AV12 cells co-expressing rat EAAT1
Text: (§1) The relative antagonist potencies of the compounds of the invention for the other human mGlu receptors can be assessed with either a cAMP assay or fluorometric calcium response assay (see for example Fell et al., JPET (in press)). Briefly, individual AV12 cell lines containing the rat EAAT1 glutamate transporter and stably expressing the human mGlu1, 2, 3, 4, 5, 6, & 8 receptors are used for these studies. The mGlu1 and 5 receptors are Gq-coupled, so they naturally signal through phospholipase C, producing a calcium flux response which can be used to measure receptor activation using a Fluorometric Imaging Plate Reader (FLIPR, Molecular Devices). […]
(§2) Intracellular calcium levels are monitored using FLIPR before and after the addition of test compounds and Fluo-3 AM (Invitrogen) or Calcium 4 (Molecular Devices) dye, depending on the cell line. […] The results are analyzed using GraphPad Prism v4.03 to calculate the concentrations of glutamate needed to induce the EC90 (antagonist assay) and EC10 (potentiator assay) responses.
(§3) Compounds are tested at each mGlu receptor in a two-addition FLIPR assay using a 10-point concentration response profile starting at a final concentration of 25 μM for the agonist assay and 12.5 μM for the potentiator and antagonist assays. […] Agonist effects are quantified as percent stimulation induced by compound alone relative to the maximal glutamate response. […]

human mGlu4 receptor = biological target: T3, human mGlu4 receptor (Homo sapiens, UniProt Q14833); assay: FLIPR calcium antagonist assay for mGlu receptor selectivity, mGlu4; assay type: cell-based; settings: inhibition of EC90 glutamate response, read-out: mGlu4 % inhib. @12.5 μM
T3 construct: expressed in transfected cells; host or cells: AV12 cells co-expressing rat EAAT1 and Galpha15
Text: as §1, §2, §3

human mGlu5 receptor = biological target: T4, human mGlu5 receptor (Homo sapiens, UniProt P41594); assay: FLIPR calcium antagonist assay for mGlu receptor selectivity, mGlu5; assay type: cell-based; settings: inhibition of EC90 glutamate response, read-out: mGlu5 % inhib. @12.5 μM
T4 construct: expressed in transfected cells; host or cells: AV12 cells co-expressing rat EAAT1
Text: as §1, §2, §3

human mGlu6 receptor = biological target: T5, human mGlu6 receptor (Homo sapiens, UniProt O15303); assay: mGlu6 cAMP antagonist assay (reference agonist L-AP4); assay type: cell-based; settings: cAMP format
T5 construct: expressed in transfected cells; host or cells: AV12 cells co-expressing rat EAAT1
Text: as §1, with “Devices). The cell lines expressing the mGlu2, 3, 4, and 8 receptor are designed to express the Gα15 subunit so that these Gi-coupled receptors will generate a calcium flux response similar to the mGlu1 and 5 receptor expressing cell lines. The mGlu6 receptor is tested in a cAMP format using methods analogous to those developed for mGlu2 and mGlu3 above.” for “Devices).”
Antagonist activity in mGlu6 cells is measured using cAMP in a method analogous to that described above for mGlu2 and mGlu3 activity, except that the reference agonist was L-AP4 (Tocris). […] Relative IC50 and EC50 values are calculated from the top-bottom range of the concentration response curve using a four-parameter logistic curve fitting program (ActivityBase v5.3.1.22).

human mGlu8 receptor = biological target: T6, human mGlu8 receptor (Homo sapiens, UniProt O00222); assay: FLIPR calcium antagonist assay for mGlu receptor selectivity, mGlu8; assay type: cell-based
T6 construct: expressed in transfected cells; host or cells: AV12 cells co-expressing rat EAAT1 and Galpha15
Text: The relative antagonist potencies of the compounds of the invention for the other human mGlu receptors can be assessed with either a cAMP assay or fluorometric calcium response assay (see for example Fell et al., JPET (in press)). Briefly, individual AV12 cell lines containing the rat EAAT1 glutamate transporter and stably expressing the human mGlu1, 2, 3, 4, 5, 6, & 8 receptors are used for these studies. The mGlu1 and 5 receptors are Gq-coupled, so they naturally signal through phospholipase C, producing a calcium flux response which can be used to measure receptor activation using a Fluorometric Imaging Plate Reader (FLIPR, Molecular Devices). The cell lines expressing the mGlu2, 3, 4, and 8 receptor are designed to express the Gα15 subunit so that these Gi-coupled receptors will generate a calcium flux response similar to the mGlu1 and 5 receptor expressing cell lines. The mGlu6 receptor is tested in a cAMP format using methods analogous to those developed for mGlu2 and mGlu3 above. These cell lines are maintained as previously described except that amounts of L-glutamine and selection agents (geneticin, hygromycin B, zeocin, and blasticidin) may vary depending on the cell line. Confluent cultures are passaged biweekly.
Intracellular calcium levels are monitored using FLIPR before and after the addition of test compounds and Fluo-3 AM (Invitrogen) or Calcium 4 (Molecular Devices) dye, depending on the cell line. Cells are plated 24 hours prior to assay in a variable concentration of glutamine and a variable density of cells per well, depending on the cell line. The medium is removed and the cells are incubated with 8 μM of dye (50 μl per well) for 90 or 120 minutes (depending on cell line) at 25° C. […] The results are analyzed using GraphPad Prism v4.03 to calculate the concentrations of glutamate needed to induce the EC90 (antagonist assay) and EC10 (potentiator assay) responses.
Compounds are tested at each mGlu receptor in a two-addition FLIPR assay using a 10-point concentration response profile starting at a final concentration of 25 μM for the agonist assay and 12.5 μM for the potentiator and antagonist assays. […] Agonist effects are quantified as percent stimulation induced by compound alone relative to the maximal glutamate response. Antagonist effects are quantified by calculating the percent inhibition of the EC90 glutamate response caused by the compound. Potentiation effects are quantified as percent increase in the presence of an EC10 response in glutamate relative to the ECmax response. All data are calculated as relative IC50 or EC50 values using a four-parameter logistic curve fitting program (ActivityBase v5.3.1.22).

hERG channel = hERG channel (Homo sapiens, UniProt Q12809); assay: Off-target activity, known assay methods, hERG
[1] = biological target: 5-HT2A serotonin receptor (Homo sapiens, UniProt P28223); assay: Off-target activity, known assay methods, 5-HT2A
[2] = biological target: 5-HT2B serotonin receptor (Homo sapiens, UniProt P41595); assay: Off-target activity, known assay methods, 5-HT2B
M2 muscarinic receptor = biological target: T7, M2 muscarinic receptor (Homo sapiens, UniProt P08172); assay: Off-target activity, known assay methods, M2
T7 sequence (P08172 1-466): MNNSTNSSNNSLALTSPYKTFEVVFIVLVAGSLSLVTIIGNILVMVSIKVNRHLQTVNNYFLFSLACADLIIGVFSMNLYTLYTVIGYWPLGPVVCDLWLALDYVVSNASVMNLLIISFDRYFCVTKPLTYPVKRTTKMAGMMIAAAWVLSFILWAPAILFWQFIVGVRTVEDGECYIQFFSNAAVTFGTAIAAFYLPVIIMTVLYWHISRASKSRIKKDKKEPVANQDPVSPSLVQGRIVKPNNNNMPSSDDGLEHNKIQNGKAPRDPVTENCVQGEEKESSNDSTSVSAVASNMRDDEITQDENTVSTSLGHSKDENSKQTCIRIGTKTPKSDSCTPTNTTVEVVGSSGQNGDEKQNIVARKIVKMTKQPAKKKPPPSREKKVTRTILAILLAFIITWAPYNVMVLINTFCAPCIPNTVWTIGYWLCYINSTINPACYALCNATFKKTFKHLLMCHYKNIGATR

iGluR5 = iGluR5 (Homo sapiens, UniProt P39086); assay: Off-target activity, known assay methods, iGluR5
male NIH-Swiss mice = assay: Forced-swim test in mice (mFST); assay type: in vivo, mouse; settings: i.p.
[3] = system: wild type, mGlu2(−/−), mGlu3(−/−) and double knockout mice; assay: Wakefulness in mGlu2 and/or mGlu3 receptor deletion mice; assay type: in vivo, mouse; settings: 10 mg/kg, i.p.
Text: Additionally, in three separate experiments, mice with single mGlu2(−/−), single mGlu3(−/−), or double mGlu2(−/−) mGlu3(−/−) receptor deletions are studied.

[4] = system: mGlu2+/+ and mGlu2−/− mice; assay: mFST in mGlu2 knock-out mice and +/+ littermates; settings: 10 mg/kg, i.p., 30 min prior
Description: Briefly, male NIH-Swiss mice (Harlan Sprague-Dawley, Indianapolis, Ind.) weighing between 25-30 g are used. Group housed animals are removed from the vivarium to the testing area in their own cages and allowed to adapt to the new environment for at least 1 hour before testing. […] Mice are placed in a cylinder (diameter: 10 cm; height: 25 cm) filled with 6 cm of water (22-25° C.) for 6 min. The duration of immobility during the last 4 min. of the 6 min. period of the test was scored. A mouse is recorded as immobile when floating motionless or making only those movements necessary to keep its head above water.
In other experiments, mice with receptor deletions (mGlu2 knock-out mice) are studied; these mice are bred by heterozygote×heterozygote breeding and used as littermates for −/− and +/+ mouse comparisons (Taconic Farms).

T6 sequence (O00222 34-908): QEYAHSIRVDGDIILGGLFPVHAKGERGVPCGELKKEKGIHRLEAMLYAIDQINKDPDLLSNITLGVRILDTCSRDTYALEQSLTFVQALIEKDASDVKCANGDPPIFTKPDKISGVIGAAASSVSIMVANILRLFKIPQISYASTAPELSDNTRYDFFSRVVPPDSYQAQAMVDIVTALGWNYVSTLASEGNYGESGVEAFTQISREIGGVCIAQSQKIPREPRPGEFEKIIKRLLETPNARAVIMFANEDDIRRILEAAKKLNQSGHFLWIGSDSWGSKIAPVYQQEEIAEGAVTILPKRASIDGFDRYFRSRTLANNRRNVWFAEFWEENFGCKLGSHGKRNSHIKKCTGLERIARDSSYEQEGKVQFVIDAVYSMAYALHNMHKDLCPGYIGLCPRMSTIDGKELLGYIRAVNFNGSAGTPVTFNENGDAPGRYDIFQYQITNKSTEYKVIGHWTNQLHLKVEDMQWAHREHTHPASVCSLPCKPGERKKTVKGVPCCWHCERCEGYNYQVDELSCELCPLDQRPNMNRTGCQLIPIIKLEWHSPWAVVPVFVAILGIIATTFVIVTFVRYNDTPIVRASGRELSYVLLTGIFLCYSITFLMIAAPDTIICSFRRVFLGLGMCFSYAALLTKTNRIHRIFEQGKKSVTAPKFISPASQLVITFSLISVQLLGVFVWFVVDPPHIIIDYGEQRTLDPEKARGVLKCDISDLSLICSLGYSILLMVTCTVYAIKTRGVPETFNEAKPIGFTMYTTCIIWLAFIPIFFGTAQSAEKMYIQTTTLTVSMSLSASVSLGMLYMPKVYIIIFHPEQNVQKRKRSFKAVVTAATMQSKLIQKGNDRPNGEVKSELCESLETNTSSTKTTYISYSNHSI
T4 sequence (P41594 21-1212): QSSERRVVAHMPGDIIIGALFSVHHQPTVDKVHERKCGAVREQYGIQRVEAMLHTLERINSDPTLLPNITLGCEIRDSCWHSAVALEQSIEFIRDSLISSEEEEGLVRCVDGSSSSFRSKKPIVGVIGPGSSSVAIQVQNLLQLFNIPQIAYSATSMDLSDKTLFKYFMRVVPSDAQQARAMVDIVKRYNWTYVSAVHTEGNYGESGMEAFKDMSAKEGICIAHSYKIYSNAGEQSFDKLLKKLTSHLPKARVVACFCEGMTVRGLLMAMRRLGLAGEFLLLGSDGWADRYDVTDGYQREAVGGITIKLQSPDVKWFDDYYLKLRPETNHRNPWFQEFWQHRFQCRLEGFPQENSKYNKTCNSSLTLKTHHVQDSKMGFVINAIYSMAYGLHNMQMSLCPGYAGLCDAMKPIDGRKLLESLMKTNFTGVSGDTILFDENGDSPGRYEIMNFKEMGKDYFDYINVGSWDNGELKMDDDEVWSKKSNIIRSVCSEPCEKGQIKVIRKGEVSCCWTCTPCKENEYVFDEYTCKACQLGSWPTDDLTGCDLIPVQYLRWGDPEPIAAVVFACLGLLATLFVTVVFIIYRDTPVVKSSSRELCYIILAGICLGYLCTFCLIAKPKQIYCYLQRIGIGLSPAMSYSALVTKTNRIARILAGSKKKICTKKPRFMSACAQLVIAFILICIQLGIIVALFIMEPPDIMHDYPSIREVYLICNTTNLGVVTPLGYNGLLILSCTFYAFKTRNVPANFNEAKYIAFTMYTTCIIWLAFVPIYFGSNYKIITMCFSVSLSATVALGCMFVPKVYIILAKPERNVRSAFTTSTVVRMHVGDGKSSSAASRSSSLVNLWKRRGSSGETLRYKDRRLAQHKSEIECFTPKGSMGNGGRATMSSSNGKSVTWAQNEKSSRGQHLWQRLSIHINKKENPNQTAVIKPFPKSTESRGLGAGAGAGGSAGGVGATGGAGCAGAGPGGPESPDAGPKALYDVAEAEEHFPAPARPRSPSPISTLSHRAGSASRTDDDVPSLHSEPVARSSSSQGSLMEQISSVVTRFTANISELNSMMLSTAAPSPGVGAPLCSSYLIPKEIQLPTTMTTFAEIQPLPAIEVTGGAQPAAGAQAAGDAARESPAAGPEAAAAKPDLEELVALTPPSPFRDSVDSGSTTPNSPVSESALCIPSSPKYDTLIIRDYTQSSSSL
T2 sequence (Q13255 19-1194): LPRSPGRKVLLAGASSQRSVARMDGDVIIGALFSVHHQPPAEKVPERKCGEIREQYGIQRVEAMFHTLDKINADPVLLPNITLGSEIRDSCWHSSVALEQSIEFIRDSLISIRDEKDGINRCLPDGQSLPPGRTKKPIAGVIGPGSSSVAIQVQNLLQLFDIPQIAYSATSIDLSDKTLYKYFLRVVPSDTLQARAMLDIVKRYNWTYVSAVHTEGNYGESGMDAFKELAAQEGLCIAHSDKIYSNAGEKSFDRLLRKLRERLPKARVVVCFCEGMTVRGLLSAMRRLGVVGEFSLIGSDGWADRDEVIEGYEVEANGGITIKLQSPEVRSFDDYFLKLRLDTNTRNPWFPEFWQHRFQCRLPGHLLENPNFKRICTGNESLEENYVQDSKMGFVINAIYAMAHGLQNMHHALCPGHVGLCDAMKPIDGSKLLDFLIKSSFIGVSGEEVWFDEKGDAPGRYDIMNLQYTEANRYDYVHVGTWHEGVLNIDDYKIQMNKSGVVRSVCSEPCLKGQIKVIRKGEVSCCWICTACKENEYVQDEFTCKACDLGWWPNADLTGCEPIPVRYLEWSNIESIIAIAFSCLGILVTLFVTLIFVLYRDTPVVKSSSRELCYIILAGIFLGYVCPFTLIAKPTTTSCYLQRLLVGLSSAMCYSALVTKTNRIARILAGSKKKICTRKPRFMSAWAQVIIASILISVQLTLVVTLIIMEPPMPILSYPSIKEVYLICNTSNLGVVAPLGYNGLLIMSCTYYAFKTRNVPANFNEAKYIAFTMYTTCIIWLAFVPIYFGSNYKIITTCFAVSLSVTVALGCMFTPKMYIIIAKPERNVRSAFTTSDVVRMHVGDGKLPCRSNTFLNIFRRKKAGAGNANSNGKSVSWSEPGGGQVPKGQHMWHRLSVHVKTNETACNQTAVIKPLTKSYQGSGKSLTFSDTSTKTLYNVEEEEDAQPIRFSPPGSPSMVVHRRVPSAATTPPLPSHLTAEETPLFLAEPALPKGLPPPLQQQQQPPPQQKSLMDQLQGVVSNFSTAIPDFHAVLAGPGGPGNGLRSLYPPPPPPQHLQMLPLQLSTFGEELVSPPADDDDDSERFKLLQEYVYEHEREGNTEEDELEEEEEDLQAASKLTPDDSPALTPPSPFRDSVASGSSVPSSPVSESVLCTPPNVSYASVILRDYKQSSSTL
5-HT2A serotonin receptor, sequence (P28223 whole entry): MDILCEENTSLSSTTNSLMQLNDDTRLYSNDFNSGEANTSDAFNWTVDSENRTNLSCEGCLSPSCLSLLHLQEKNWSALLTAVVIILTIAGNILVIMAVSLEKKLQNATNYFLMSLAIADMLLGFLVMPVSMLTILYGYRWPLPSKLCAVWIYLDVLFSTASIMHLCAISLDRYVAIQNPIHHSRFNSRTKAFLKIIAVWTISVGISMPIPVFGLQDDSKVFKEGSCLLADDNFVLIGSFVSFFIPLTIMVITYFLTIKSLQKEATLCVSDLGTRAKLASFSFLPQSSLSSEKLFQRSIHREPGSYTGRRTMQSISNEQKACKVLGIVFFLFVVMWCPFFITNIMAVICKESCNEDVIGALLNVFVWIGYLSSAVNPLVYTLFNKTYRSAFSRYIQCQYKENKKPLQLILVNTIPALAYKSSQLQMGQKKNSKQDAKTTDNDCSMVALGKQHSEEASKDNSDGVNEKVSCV
T1 sequence (Q14832 23-879): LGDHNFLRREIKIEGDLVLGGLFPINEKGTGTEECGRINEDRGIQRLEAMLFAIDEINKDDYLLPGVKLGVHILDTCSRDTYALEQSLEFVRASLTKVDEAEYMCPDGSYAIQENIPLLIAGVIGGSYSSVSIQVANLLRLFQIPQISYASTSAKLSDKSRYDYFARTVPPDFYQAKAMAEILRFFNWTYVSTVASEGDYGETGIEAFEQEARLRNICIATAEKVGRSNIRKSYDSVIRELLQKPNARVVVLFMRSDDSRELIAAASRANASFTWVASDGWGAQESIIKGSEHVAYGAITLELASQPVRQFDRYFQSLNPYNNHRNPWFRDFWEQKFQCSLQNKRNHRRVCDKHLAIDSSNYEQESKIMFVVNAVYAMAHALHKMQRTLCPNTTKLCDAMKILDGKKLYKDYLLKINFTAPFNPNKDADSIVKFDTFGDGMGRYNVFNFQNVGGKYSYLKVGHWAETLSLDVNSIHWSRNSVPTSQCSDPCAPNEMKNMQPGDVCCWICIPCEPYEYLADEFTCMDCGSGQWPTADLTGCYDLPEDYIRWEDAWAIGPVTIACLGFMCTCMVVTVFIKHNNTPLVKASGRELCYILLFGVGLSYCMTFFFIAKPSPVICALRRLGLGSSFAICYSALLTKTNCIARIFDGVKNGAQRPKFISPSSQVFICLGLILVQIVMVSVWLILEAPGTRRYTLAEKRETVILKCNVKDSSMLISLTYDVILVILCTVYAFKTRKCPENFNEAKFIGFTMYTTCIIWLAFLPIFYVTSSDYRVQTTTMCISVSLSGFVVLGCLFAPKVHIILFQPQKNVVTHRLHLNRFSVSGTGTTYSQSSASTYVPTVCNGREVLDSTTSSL
5-HT2B serotonin receptor, sequence (P41595 whole entry): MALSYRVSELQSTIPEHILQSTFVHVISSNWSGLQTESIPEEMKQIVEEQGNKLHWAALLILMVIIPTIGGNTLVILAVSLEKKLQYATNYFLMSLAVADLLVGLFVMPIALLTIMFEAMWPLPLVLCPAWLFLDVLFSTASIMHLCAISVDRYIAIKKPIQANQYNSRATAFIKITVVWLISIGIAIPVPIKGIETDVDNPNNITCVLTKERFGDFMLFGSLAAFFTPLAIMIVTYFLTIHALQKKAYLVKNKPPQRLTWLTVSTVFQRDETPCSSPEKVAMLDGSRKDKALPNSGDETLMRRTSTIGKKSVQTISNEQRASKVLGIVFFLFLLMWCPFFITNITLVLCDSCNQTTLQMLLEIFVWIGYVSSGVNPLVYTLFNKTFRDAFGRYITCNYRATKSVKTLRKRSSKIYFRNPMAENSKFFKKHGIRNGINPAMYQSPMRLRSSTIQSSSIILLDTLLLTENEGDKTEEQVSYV

SMILES: Cl.N[C@]1(C(=O)O)[C@@H]2[C@@H](C(=O)O)[C@@H]2[C@H](O)[C@H]1CSc1ccc(F)c(F)c1 [Example 1, (1S,2R,3S,4S,5R,6R)-2-Amino-3-{[(3,4-difluorophenyl)sulfanyl]methyl}-4-hydroxybicyclo[3.1.0]hexane-2,6-dicarboxylic acid hydrochloride]
- IC50 (human mGlu3 receptor): 6.2 ± 2.2 nM
- inhibition at 12.5 µM (human mGlu1 receptor): 6.3%
- inhibition at 12.5 µM (human mGlu4 receptor): 17.9%
- inhibition at 12.5 µM (human mGlu5 receptor): -2%
- IC50 (human mGlu6 receptor): 1720 nM
- inhibition at 12.5 µM (human mGlu8 receptor; 12.5 μM, inhibition of EC90 glutamate response, read-out: mGlu8 % inhib. @12.5 μM): 47%
- IC50 (human mGlu8 receptor; FLIPR antagonist, in brackets under % inhib.): 4.97 µM
- activity at the hERG channel (hERG channel): no appreciable activity
- activity at serotonin receptor 5-HT2A [1]: no appreciable activity
- activity at serotonin receptor 5-HT2B [2]: no appreciable activity
- activity at muscarinic receptor M2 (M2 muscarinic receptor): no appreciable activity
- activity at iGluR5 (iGluR5): no appreciable activity
- ED60 (mg/kg) (male NIH-Swiss mice; immobility, last 4 min of 6 min): 8.0 (i.p.) mg/kg
- Maximal Decrease (1 − compound/control) * 100% (male NIH-Swiss mice; immobilization time): 36.1%
- wakefulness in double knockout mGlu2(−/−) mGlu3(−/−) mice ([3]; double knockout): not significantly increase wakefulness
- wakefulness in single knockout mGlu2(−/−) mice ([3]; mGlu2(−/−), though at a reduced level): significantly increase wakefulness
- wakefulness in single knockout mGlu3(−/−) mice ([3]; mGlu3(−/−), though at a reduced level): significantly increase wakefulness
- wakefulness in wild type mice ([3]; wild type): significantly increase wakefulness
- immobility time in mGlu2+/+ mice [4]: significantly decrease immobility time
